Test results taken from US7329660B2, “Phthalazine derivatives for treating inflammatory diseases” (Novartis AG, priority 1999, dated 2008).

Tests used:
[1] = target: T1, Flt-1 VEGF-receptor tyrosine kinase (Homo sapiens, UniProt P17948); assay: Test for activity against Flt-1 VEGF-receptor tyrosine kinase; assay type: biochemical
T1 construct: 10 ng of the kinase domain of Flt-1
T1 sequence (P17948 827-1158 limits assumed): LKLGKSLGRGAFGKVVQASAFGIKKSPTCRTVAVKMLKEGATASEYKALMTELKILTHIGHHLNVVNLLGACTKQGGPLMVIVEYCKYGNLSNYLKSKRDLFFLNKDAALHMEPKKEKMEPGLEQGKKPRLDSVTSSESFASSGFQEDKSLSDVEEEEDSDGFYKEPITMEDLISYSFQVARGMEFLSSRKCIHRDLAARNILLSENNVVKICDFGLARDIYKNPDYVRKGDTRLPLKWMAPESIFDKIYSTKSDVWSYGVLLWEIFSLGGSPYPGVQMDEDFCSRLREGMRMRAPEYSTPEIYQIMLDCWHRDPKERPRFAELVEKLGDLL
Method: Test for activity against VEGF-receptor tyrosine kinase: the test is conducted using Flt-1 VEGF-receptor tyrosine kinase. […] The reaction is then ended by the addition of 10 μl 0.25 M ethylenediaminetetraacetate (EDTA) pH 7. Using a multichannel dispenser (LAB SYSTEMS, USA), an aliquot of 20 μl is applied to a PVDF (=polyvinyl difluoride) Immobilon P membrane (Millipore, USA), which is incorporated into a Millipore microtitre filter manifold, and connected to a vacuum. Following complete elimination of the liquid, the membrane is washed 4 times successively in a bath containing 0.5% phosphoric acid (H3PO4), incubated for 10 minutes each time while shaking, then mounted in a Hewlett Packard TopCount Manifold and the radioactivity measured after the addition of 10 μl Microscint® (β-scintillation counter liquid; Packard USA).
The test is conducted using Flt-1 VEGF-receptor tyrosine kinase, as described hereinabove.

[2] = tested on: male Wistar rats; assay: Rat adjuvant arthritis model, therapeutic dosing; assay type: in vivo; details: for % inhibition of swelling: day 15 to day 22, swelling of the tarsal joints
From the text: The well-known rat adjuvant arthritis model (Pearson, Proc. Soc. Exp. Biol. 91, 95-101 (1956)) is used to test the anti-arthritic activity of compounds of the formula I, or salts thereof. Adjuvant Arthritis can be treated uwing two different dosing schedules: either (i) starting time of immunisation with adjuvant (prophylactic dosing); or from day 15 when the arthritic response is already established (therapeutic dosing). Preferably a therapeutic dosing schedule is used. For comparison, e.g. SDZ115-155 (=DUP697) is administered in a separate group.
(§1) In detail, male Wistar rats (5 animals per group, weighing epproximately 200 g, supplied by Iffa Credo, France) are injected i.d. (intra-dermally) at the base of the tail with 0.1 ml of mineral oil containing 0.6 mg of lyophilised heat-killed Mycobacterium tuberculosis. The rats are treated with the test compound (3, 10 or 30 mg/kg p.o. once per day), or vehicle (water) from day 15 to day 22 (therapeutic dosing schedule). At the end of the experiment, the swelling of the tarsal joints is measured by means of a mico-calliper. Percentage inhibition of paw swelling is calculated by reference to vehicle treated arthritic animals (0% inhibition) and vehicle treated normal animals (100% inhibition).
The rat adjuvant arthritis model is used to test the anti-arthritic activity of the compound of Example 1 of WO 98/35958, 1-(4-chloroanilino)-4-(4-pyridylmethyl)phthalazine dihydrochloride. The therapeutic dosing schedule with start of treatment at day 15 after induction of arthritis is used.
as §1, with “Method: Male Wistar” for “In detail, male Wistar”, “(5 rats” for “(5 animals”, “group, weight about” for “group, weighing epproximately”, “200 g;” for “200 g, supplied by”, “of lyophilized” for “of lyophilised”, “p.o. s.i.d. (=once a” for “p.o. once per”

[3] = tested on: male Sprague Dawley rats; assay: Rat inflammatory hyperalgesia model (Randall-Selitto paw pressure test); assay type: in vivo; details: 30 mg/kg p.o., 1 and 2 hours after dosing
Method: In this model, the hyperalgesia caused by an intra-planar yeast injection is measured by applying increased pressure to the foot until the animal vocalizes or withdraws its foot from the applied pressure pad. The model is sensitive to COX inhibitors, and diclofenac at 3 mg/kg is used as a positive control.
Method: The baseline pressure required to induce vocalization or withdrawal of the paw of male Sprague Dawley rats (weighing approximately 180 g, supplied by Iffa Credo, France) is measured (2 hours before treatment), followed by an intra-planar injection of 100 μl of a 20% yeast suspension in water in the hind paw. […]
In this model, the hyperalgesia caused by an intra-planar yeast injection is measured by applying increased pressure to the foot until the animal vocalizes or withdraws its foot from the applied pressure pad. […]
Method: The baseline pressure required to induce vocalization or withdrawal of the paw of male Sprague Dawley rats (5 rats per group; weight approximately 180 g, Iffa Credo, France) is measured (2 hours before treatment), followed by an intra-planar injection of 100 μl of a 20% yeast suspension in water in the hind paw. […] Pressure is measured with the standard apparatus from Ugo Basile, Italy, for the paw pressure test (Randall-Selitto).

Question: Which IC50 [1] does the source give for `Cc1cccc(Nc2nnc(CCc3cccnc3)c3ccccc23)c1` [Example 2] here?
Answer: Its IC50 is 317 nM.

Question: What about the melting point of the same molecule?
Answer: The melting point was 136 °C.

Question: Which melting point does the source give for `Cc1cc(Nc2nnc(Cc3ccncc3)c3ccccc23)nc(C)n1` [Example 15, 1-[(2,6-Dimethyl-pyrimidin-4-yl)-amino]4-(4-pyridyl-methyl)-phthalazine] here?
Answer: The melting point was 232 to 233 °C.

Question: Which “% inhibition of swelling” value ([2]; 3 mg/kg p.o. once a day) does the source give for `Cl.Cl.Clc1ccc(Nc2nnc(Cc3ccncc3)c3ccccc23)cc1` [1-(4-chloroanilino)-4-(4-pyridylmethyl)phthalazine dihydrochloride] here?
Answer: The value was 0.8 ± 4.0%.

Question: What about the “% inhibition of swelling” value ([2]; 10 mg/kg p.o. once a day) of the same molecule?
Answer: The value was 12.4 ± 5.0%.

Question: And the “% inhibition of swelling” value ([2]; 30 mg/kg p.o. once a day)?
Answer: Its value is 37.0 ± 2.3%.

Question: What about the “inhibition of paw swelling (in words)” value ([2]; 3, 10 or 30 mg/kg p.o., dosing for 7 days from day 15) of the same molecule?
Answer: Its value is “dose-related inhibition of paw swelling”.

Question: What about the “overall discomfort experienced by rats while being held for oral dosing” value ([2]; observation in the adjuvant arthritis model) of the same molecule?
Answer: The value was “reduce the overall discomfort”.

Question: What about the “inhibition of paw hyperalgesia (in words)” value [3] of the same molecule?
Answer: The value was “inhibits paw hyperalgesia”.

Question: For `Cc1cccc(Nc2nnc(/C=C\c3cccnc3)c3ccccc23)c1` [1 (Z isomer)], which IC50 [1] is on record?
Answer: The IC50 was 4900 nM.

Question: Which “% inhibition of swelling” value ([2]; 3 mg/kg p.o. once a day) does the source give for `CS(=O)(=O)c1ccc(-c2cc(Br)sc2-c2ccc(F)cc2)cc1` [115–155, reference compound] here?
Answer: The value was 53.8 ± 2.7%.

Question: For `Cc1cc(Cc2nnc(Nc3cc(Br)cc(C(F)(F)F)c3)c3ccccc23)ccn1` [Example 23, 1-(3-Bromo-5-trifluoromethyl-anilino)-4-(2-methylpyridin-4-yl-methyl)-phthalazine], which melting point is on record?
Answer: The melting point was 184 to 185 °C.

Question: Which IC50 [1] does the source give for `Cc1cccc(Nc2nnc(/C=C/c3cccnc3)c3ccccc23)c1` [1 (E isomer)] here?
Answer: Its IC50 is 715 nM.

Question: With `FC(F)(F)c1cc(Nc2nnc(CCCc3cccnc3)c3ccccc23)ccc1Cl` [Example 8, 1-(4-Chloro-3-trifluoromethylanilino)-4-[3-(pyridin-3-yl)propyl]phthalazine] as the molecule, how does the melting point read?
Answer: Its melting point is 165 to 166 °C.
